Publication PMC10655391, “Inhibition of Hsp110-STAT3 interaction in endothelial cells alleviates vascular remodeling in hypoxic pulmonary arterial Hypertension model” (Respiratory Research, 2023)

Molecular target: T1, Hsp110 (Homo sapiens, UniProt Q92598)
T1 construct: gene HSPH1; purified recombinant human Hsp110 (His6-SUMO tag cleaved)
Assay: luciferase anti-aggregation assay with purified Hsp110 at […] (single concentration)
Format: biochemical
Conditions: read-out: % reduction of anti-aggregating activity at 100 μM

T1 sequence (Q92598 whole entry): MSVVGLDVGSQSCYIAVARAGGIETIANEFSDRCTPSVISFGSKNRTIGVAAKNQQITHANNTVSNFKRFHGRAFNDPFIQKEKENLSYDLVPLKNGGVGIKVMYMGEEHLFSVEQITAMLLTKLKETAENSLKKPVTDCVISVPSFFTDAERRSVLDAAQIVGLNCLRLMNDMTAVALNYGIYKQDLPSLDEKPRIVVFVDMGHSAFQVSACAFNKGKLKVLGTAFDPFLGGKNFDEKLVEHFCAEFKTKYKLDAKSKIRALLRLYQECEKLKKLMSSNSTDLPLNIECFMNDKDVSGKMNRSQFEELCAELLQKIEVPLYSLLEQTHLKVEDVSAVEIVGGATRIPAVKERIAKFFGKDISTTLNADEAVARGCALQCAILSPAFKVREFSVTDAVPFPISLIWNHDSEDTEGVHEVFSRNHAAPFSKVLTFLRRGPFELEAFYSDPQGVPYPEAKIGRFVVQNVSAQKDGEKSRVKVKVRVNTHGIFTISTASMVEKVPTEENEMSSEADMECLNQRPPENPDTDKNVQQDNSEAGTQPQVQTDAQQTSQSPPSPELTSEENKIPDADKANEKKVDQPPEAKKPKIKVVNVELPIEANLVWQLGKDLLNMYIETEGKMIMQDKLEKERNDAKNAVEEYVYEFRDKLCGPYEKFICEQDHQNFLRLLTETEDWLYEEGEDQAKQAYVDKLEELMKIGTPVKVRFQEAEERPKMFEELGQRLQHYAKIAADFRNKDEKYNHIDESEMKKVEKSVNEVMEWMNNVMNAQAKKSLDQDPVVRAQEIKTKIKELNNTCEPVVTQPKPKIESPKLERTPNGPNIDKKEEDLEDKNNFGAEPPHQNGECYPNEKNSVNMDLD

Compound	inhibition at 100 µM
Cc1ccccc1COc1nc2c(cc1-c1nc(N)cc(N)n1)c(C)nn2-c1ccccc1 [compound 5]	> 50%
Cc1nn(-c2ccccc2)c2nc(OCc3cnc(Cl)s3)c(-c3nc(N)cc(N)n3)cc12 [compound 8]	> 50%
